From US8148510B2, “Antifungal polypeptides” (Pioneer Hi-Bred International, Inc., priority 2004, dated 2012)
Entries after “also recorded” stand apart in the source; their conditions may differ. Read-outs that look alike come from different tables or passages of the source.

B1: LBNL-9827-2: antifungal polypeptide from Monascus ruber IMV 00127; 3 additional N-terminal amino acids versus SEQ ID NO:7 (protein)
chain: DVQLSKFGGECSLKHNTCTYLKGGKNHVVNCGSAANKKCKSDRHHCEYDEHHKRVDCQTPV

Key:
[1] = tested on: F. verticilioides line that expresses the reporter gene β-glucuronidase (GUS); assay: Fusarium verticillioides challenge assay of maize seedlings (GUS activity); format: in vivo; settings: maize seedlings transformed with PHP22300; three days after spore exposure; 4 explants per event
[2] = tested on: Fusarium verticillioides (FVE); assay: antifungal activity assay of transgenic maize callus extracts; format: cell-based; settings: against FVE, qualitative
[3] = tested on: Fusarium graminearum (FGR); format: cell-based; settings: plate assay, qualitative
Diplodia maydis (DMA) = format: cell-based; settings: plate assay, qualitative
C. graminicola [4] = assay: upper stalk resistance of transgenic maize plants; format: in vivo, Colletotrichum graminicola; settings: T0 transgenic maize, uppermost stalk internode, about five days after inoculation, 10 cm^2 area around inoculation site; control 84.7±2.6%
[5] = tested on: Fusarium verticillioides (FVE); format: cell-based
[6] = tested on: Colletotrichum graminicola (CGR); format: cell-based; settings: plate assay, qualitative
C. graminicola [7] = assay: lower stalk resistance of transgenic maize plants; format: in vivo, Colletotrichum graminicola; settings: T0 transgenic maize, lowest internode inoculated 10 DAP, scored after 21 days, five lowermost internodes; empty vector control 4.0±0.2

Molecule | average GUS activity (correlates with fungal biomass) relative to controls [1] | antifungal activity of protein produced and isolated from transgenic maize callus [2] | antifungal activity against FGR ([3]; listed as SEQ ID NO:1) | antifungal activity against DMA (Diplodia maydis (DMA); listed as SEQ ID NO:1) | mean percent infected area (C. graminicola [4]) | antifungal activity against FVE [5] | antifungal activity against CGR ([6]; listed as SEQ ID NO:1) | mean score (number of internodes showing more than 75% disease) (C. graminicola [7]) | antifungal activity against FGR [3] | antifungal activity against DMA (Diplodia maydis (DMA)) | antifungal activity against CGR [6] | antifungal activity against FGR ([3]; listed as SEQ ID NO:9) | antifungal activity against DMA (Diplodia maydis (DMA); listed as SEQ ID NO:9) | antifungal activity against CGR ([6]; listed as SEQ ID NO:9)
LBNL-5220: antifungal polypeptide (55 amino acids, mature mass 6174 Da) isolated from Penicillium simplicissimum fermentation broth (LKYTGTCTRANNQCKYKGQNDRDTFVKCPTFANKKCTRDGAPCSFDSYSRAVTCD) | decrease in average GUS activity | has antifungal activity | showed antifungal activity; also recorded: display antifungal activity | showed antifungal activity; also recorded: display antifungal activity | 54.4±1.4% | showed antifungal activity; also recorded: display antifungal activity | showed antifungal activity; also recorded: display antifungal activity | 2.2±0.1 |  |  |  |  |  | 
LBNL-5197/8-2: antifungal polypeptide from Penicillium miczyinskii strain K01-17A4 (LSKYGGECSLAHNTCTYLKGGKNQVVACGTAANKRCKTDRHHCEYDEYHKTVDCQTPV) |  |  |  |  |  | anti-FVE activity; also recorded: display antifungal activity |  |  | display antifungal activity | display antifungal activity | display antifungal activity |  |  | 
LBNL-9827-1: antifungal polypeptide from Monascus ruber IMV 00127; identical to SEQ ID NO:9 without 3 N-terminal amino acids (LSKFGGECSLKHNTCTYLKGGKNHVVNCGSAANKKCKSDRHHCEYDEHHKRVDCQTPV) |  |  |  |  |  | active against FVE; also recorded: display antifungal activity |  |  | display antifungal activity | display antifungal activity | display antifungal activity |  |  | 
B1 |  |  |  |  |  | inhibited FVE, FGR, CGR, and DMA in a dose-dependent fashion; also recorded: inhibited Colletotrichum graminicola, Diplodia maydis, Fusarium graminearum, and Fusarium verticillioides in a dose-dependent fashion; also recorded: display antifungal activity |  |  |  |  |  | inhibited FVE, FGR, CGR, and DMA in a dose-dependent fashion; also recorded: inhibited Colletotrichum graminicola, Diplodia maydis, Fusarium graminearum, and Fusarium verticillioides in a dose-dependent fashion; also recorded: display antifungal activity | inhibited FVE, FGR, CGR, and DMA in a dose-dependent fashion; also recorded: inhibited Colletotrichum graminicola, Diplodia maydis, Fusarium graminearum, and Fusarium verticillioides in a dose-dependent fashion; also recorded: display antifungal activity | inhibited FVE, FGR, CGR, and DMA in a dose-dependent fashion; also recorded: inhibited Colletotrichum graminicola, Diplodia maydis, Fusarium graminearum, and Fusarium verticillioides in a dose-dependent fashion; also recorded: display antifungal activity
